Measurements from US20070167405A1, “Galectins -1 and -4 in tumor development” (priority 2001, published 2007).
Values joined by “and” are separate entries in the source; they are usually repeats but may differ in a detail not shown here. Equal entries are not always repeated. “Also recorded” adds a separate entry of the source. Where two headings read alike, the source gives them in different places.

Columns and labels:
CD8+ CTL clone [1] = assay: Cytokine production by CD8+ CTL clone after TF peptide stimulation, with galectin-1 and inhibitor; type: cell-based
Procedure: Treatment in vitro of CD4+ and CD8+T cells with recombinant soluble galectin-1 inhibits their survival and ability to secrete cytokine, such as interferon-γ and IL-2. […] In FIG. 10A, cells are stimulated by TF peptide and the levels of interferon-γ produced measured in nanogram/milliliter (ng/ml). As shown, galectin-1 inhibits interferon-γ secretion in a dose-dependent manner. […] Similar data were seen when another cytokine, IL-2, was measured (not shown).

CD8+ CTL clone [2] = assay: CD8+ CTL clone survival after TF peptide stimulation, with galectin-1 and inhibitors; type: cell-based
From the text: The ability of L2hmda to restore this activity is especially significant since TDG, a known galectin inhibitor, is toxic. However, L2hmda is not toxic. […] The CD8+ CTL clone was stimulated with TF peptide for 4 days and cell survival (% of starting number) measured by enumerating viability by trypan blue exclusion.

[3] = biological target: recombinant human galectin-1 (Homo sapiens, UniProt P09382); assay: SPR (BIAcore) equilibrium binding to immobilized galectin-1; conditions: for binding to galectin-1 (in words): SPR assay
Procedure: (§1) Galectin binding affinity measurements were performed in a surface plasmon resonance (SPR) assay using […] instrument (BIAcore, Inc, Uppsala, Sweden). PBS with 5 mM β-mercaptoethanol was used as running buffer for all experiments. Purified recombinant human galectin-1 and galectin-4 were immobilized at different surface densities on CM5 carboxymethyldextran chip (BIAcore) in the presence of 150 mM lactose, using standard amine coupling chemistry. Galectin immobilization was performed at 5 μl/min flow rate. To ensure the maximum possible immobilization of recombinant proteins, carboxylmethyldextran surface was activated with a 15 min pulse of a mixture of 0.05 M N-hydroxysuccinimide (NHS) with 0.2 M N-ethyl-N′-(dimethylaminopropyl) carbodiimide (EDC). Recombinant galectins, diluted to 30 μg/ml in 10 mM Na Acetate buffer (pH 4.8 for galectin-1 and pH 5.5 for galectin-4) were coupled to the surface during a 15-minute injection. Following galectin injection, remaining activated groups on the surface of the chip were deactivated with a 7 min pulse of 1 M ethanolamine hydrochloride, pH 8.5. Blank, unmodified CM5 surface was used as a negative control for the corrections for refractive index changes due to the presence of lactulosamines.
(§2) Binding of lactulosamines was performed at 80 μl/min flow rate, with injection times of 15 sec. […] Instead, the equilibrium binding levels were examined and determined the equilibrium binding constant using steady state affinity fitting model (BIAevaluation software version 3.1).

N202.1A tumor cells = assay: N202.1A tumor growth in Neu mice; type: in vivo; conditions: 100 μl of 100 μM daily combined with dendritic cell therapy, 25 days, FIG. 11, listed as L2hmda
Procedure: Neu mice were inoculated on Day 0 with 10^6 N202.1A tumor cells. The animals were divided into four groups of four mice each. On Day 7, groups 2 and 4 were subjected to dendritic cell therapy which involved immunization with 10^6 dendritic cells pulsed with apoptotic N202.1A cells and intraperitoneal injections of recombinant IL-2 (10^4 1.U./injection) from Day 10 to […]. Groups 3 and 4 received injections of 100 μl of 100 μM L2hmda daily.

[4] = biological target: T1, recombinant human galectin-4 (Homo sapiens, UniProt P56470); assay: SPR (BIAcore) equilibrium binding to immobilized galectin-4
T1 construct: cDNA encoding full-length human galectin-4 was amplified from an EST clone; made in house; host or cells: E. coli BL21 (DE3)pLysS
T1 sequence (P56470 1-323): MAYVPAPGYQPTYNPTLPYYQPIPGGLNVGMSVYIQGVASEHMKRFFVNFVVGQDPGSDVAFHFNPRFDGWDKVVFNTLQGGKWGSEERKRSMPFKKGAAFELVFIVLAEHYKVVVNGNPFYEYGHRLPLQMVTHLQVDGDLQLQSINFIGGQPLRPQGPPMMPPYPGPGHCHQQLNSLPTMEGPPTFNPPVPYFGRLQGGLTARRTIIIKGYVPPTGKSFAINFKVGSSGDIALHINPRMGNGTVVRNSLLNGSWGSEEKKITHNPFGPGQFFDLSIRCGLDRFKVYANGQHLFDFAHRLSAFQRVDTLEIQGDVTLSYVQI
Procedure: as §1, §2

[5] = biological target: galectin-1 binding to 90K/MAC-2BP (Homo sapiens, UniProt P09382); assay: ELISA, inhibition of galectin-1 binding to immobilized 90K; conditions: for inhibition of binding of galectin-1 to 90K: at 156 μM, galectin-1 2.5 μg/ml (0.17 μM)
Procedure: (§3) Human 90K/MAC-2BP (thereafter called 90K) was purified from transfected EBNA-293 cells (lurisci, I., et al., Clin. Cancer Res. (2000) 6:1389-1393). Laminin was obtained from Boehringer Mannheim GmbH (Germany). The ELISA for galectin binding has been previously described (Tinari, N., et al., Int. J. Cancer (2001) 91:167-172). Briefly, Nunc Maxisorb microtiter wells were coated with 0.5 μg/well of 90K or laminin. Recombinant galectin-1 (2.5 μg/ml or 0.17 μM) was diluted in PBS with 0.1% Tween-20 and added to wells coated with glycoproteins, and galectin-1 binding was detected with anti-galectin-1 rabbit antiserum. In binding-inhibition experiments, recombinant galectin-1 was diluted in PBS-0.1% Tween-20 containing indicated concentration of lactulosamines or lactose.

[6] = biological target: galectin-1 binding to laminin (Homo sapiens, UniProt P09382); assay: ELISA, inhibition of galectin-1 binding to immobilized laminin; conditions: for inhibition of binding of galectin-1 to laminin: at 156 μM, galectin-1 2.5 μg/ml (0.17 μM)
Procedure: as §3

breast cancer cells = conditions: nude mouse model; cited from earlier work
cancer cells = conditions: cited from earlier work
[7] = SPR steady-state analysis, read-out: KD value for galectin-1
[8] = SPR steady state affinity fit, Table I, read-out: Galectin-4 binding, KD
[9] = SPR, full-length galectin-4 with two binding domains, read-out: KD for galectin-4

Sequence of galectin-1 binding to laminin (P09382 2-135 limits assumed): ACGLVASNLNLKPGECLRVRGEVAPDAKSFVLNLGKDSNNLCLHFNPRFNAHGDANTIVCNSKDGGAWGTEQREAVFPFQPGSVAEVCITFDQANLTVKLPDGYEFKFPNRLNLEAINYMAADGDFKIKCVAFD
Sequence of galectin-1 binding to 90K/MAC-2BP (P09382 2-135 limits assumed): as above
Sequence of recombinant human galectin-1 (P09382 whole entry): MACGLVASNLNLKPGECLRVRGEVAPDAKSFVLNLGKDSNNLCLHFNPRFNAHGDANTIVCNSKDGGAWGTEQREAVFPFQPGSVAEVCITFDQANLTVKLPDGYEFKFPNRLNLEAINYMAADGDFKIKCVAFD

## OCC1OC(OC2C(O)COC(O)(CNCCCCCCNCC3(O)OCC(O)C(OC4OC(CO)C(O)C(O)C4O)C3O)C2O)C(O)C(O)C1O (centres unmarked) [Dilactulose-hexamethylenediamine, dilactulose-hexamethylenediamine]
CD8+ CTL clone [1]; galectin-1 7 μM, L2hmda 200 μM, FIG. 10C
  restoration of interferon secretion: restores the interferon 7 secretion to normal
CD8+ CTL clone [1]; increasing concentrations (50-200 uM) of inhibitor
  galectin-1 mediated suppression of IFN-γ production by the CTL: completely prevented
CD8+ CTL clone [2]; 4 days, trypan blue exclusion, FIG. 10B
  prevention of cell death induced by galectin-1: prevented the majority of cell death
CD8+ CTL clone [2]; in presence of galectin-1, FIG. 10B
  restoring the ability of CTL's to proliferate: able to restore
[3]
  half-life, weighted average of the two components of dissociation rate: 7 s
  binding to galectin-1 (in words): superior in binding
[3]; listed as L2hmda
  binding to galectin-1 (in words): significantly stronger
[3]; [7]
  Kd: ~1.5 µM
[3]; corresponding to fast koff
  half-life, fast component: 3 s
[3]; corresponding to slow koff
  half-life, slow component: 19 s
[3]; two-component dissociation model, fast component 40% of overall rate
  koff, fast component: 0.16 to 0.2 s⁻¹
[3]; two-component dissociation model, slow component 60% of overall rate
  koff, slow component: 0.036 s⁻¹
N202.1A tumor cells
  tumor volume: superior to treatment with either alone; also recorded: very little tumor volume enhancement
[4]; SPR assay
  binding to galectin-4 (in words): superior in binding
[4]; [8]
  Kd: 78 µM and 83 µM and 105 µM and 115 µM
[4]; [9]
  Kd: ~80 µM
[5]; ELISA, FIG. 9A
  inhibition of galectin-1 binding to 90K (in words): most potent inhibitor
[5]
  inhibition of binding of galectin-1 to 90K: about 80%
[6]; ELISA, FIG. 9B
  inhibition of galectin-1 binding to laminin (in words): most potent inhibitor
[6]
  inhibition of binding of galectin-1 to laminin: about 70%

## CC(C)CC(NCC(=O)C(O)C(OC1OC(CO)C(O)C(O)C1O)C(O)CO)C(=O)O [Lactulose-L-leucine, lactulose-L-leucine]
Breast cancer cells
  clonogenic growth and metastasis of breast cancer cells: block
[3]
  binding to galectin-1 (in words): could bind
[3]; SPR steady state affinity fit, Table I, read-out: Galectin-1 binding, KD
  Kd: 113 µM and 200 µM
[3]; [7]
  Kd: ~110 µM
[4]; [8]
  Kd: 505 µM and 800 µM and 1010 µM
[4]; [9]
  Kd: ~800 µM
Cancer cells
  adhesion of cancer cells to endothelium: blocks
[5]
  inhibition of binding of galectin-1 to 90K: about 50%
[6]
  inhibition of binding of galectin-1 to laminin: ~40%
